Columns and labels:
Assay type in all cases: in vivo
[1] = system: kochia (Bassia scoparia); test: Test A postemergence application, visual injury rating 0-100
Method in brief: (§1)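 Loam-sand pots got test material in surfactant-containing solvent, either as a directed soil spray before emergence or on plants at the one- to two-leaf stage. Visual injury (0-100) was read after ten greenhouse days.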

[2] = system: barnyardgrass (Echinochloa crus-galli); test: as above
Method in brief: as §1

[3] = system: green foxtail (Setaria viridis); test: as above
Method in brief: as §1

[4] = system: oat, wild (wild oat, Avena fatua); test: as above
Method in brief: as §1

[5] = system: ragweed (common ragweed, Ambrosia artemisiifolia); test: as above
Method in brief: as §1

[6] = system: blackgrass (Alopecurus myosuroides); test: as above
Method in brief: as §1

[7] = system: galium (catchweed bedstraw, Galium aparine); test: as above
Method in brief: as §1

[8] = system: wheat (Triticum aestivum); test: as above
Method in brief: as §1

[9] = system: corn (Zea mays); test: as above
Method in brief: as §1

[10] = system: ryegrass, Italian (italian ryegrass, Lolium multiflorum); test: as above
Method in brief: as §1

[11] = system: soybean (Glycine max); test: as above
Method in brief: as §1

[12] = system: palmer (palmer amaranth, palmer pigweed, Amaranthus palmeri); test: as above
Method in brief: as §1

[13] = system: kochia (Bassia scoparia); test: Test A preemergence soil spray, visual injury rating 0-100; settings: 10 days
Method in brief: as §1

[14] = system: barnyardgrass (Echinochloa crus-galli); test: as above; settings: 10 days
Method in brief: as §1

[15] = system: green foxtail (Setaria viridis); test: as above; settings: 10 days
Method in brief: as §1

[16] = system: oat, wild (wild oat, Avena fatua); test: as above; settings: 10 days
Method in brief: as §1

[17] = system: ragweed (common ragweed, Ambrosia artemisiifolia); test: as above; settings: 10 days
Method in brief: as §1

[18] = system: blackgrass (Alopecurus myosuroides); test: as above; settings: 10 days
Method in brief: as §1

[19] = system: wheat (Triticum aestivum); test: as above; settings: 10 days
Method in brief: as §1

[20] = system: corn (Zea mays); test: as above; settings: 10 days
Method in brief: as §1

[21] = system: ryegrass, Italian (italian ryegrass, Lolium multiflorum); test: as above; settings: 10 days
Method in brief: as §1

[22] = system: soybean (Glycine max); test: as above; settings: 10 days
Method in brief: as §1

[23] = system: palmer (palmer amaranth, palmer pigweed, Amaranthus palmeri); test: as above; settings: 10 days
Method in brief: as §1

[24] = system: barnyardgrass (Echinochloa crusgalli); test: Test B flooded paddy test, visual plant response rating 0-100; settings: 250 g ai/ha, Flood, applied to paddy water, evaluated after 13 days
Method in brief: (§2)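 Treatment occurs at the 2-leaf stage by adding compound to floodwater standing 3 cm above the soil, a level kept for the whole test. Plants stay in the greenhouse 13 days before visual comparison with controls.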

[25] = system: ducksalad (Heteranthera limosa); test: as above; settings: 250 g ai/ha, Flood, applied to paddy water, evaluated after 13 days
Method in brief: as §2

[26] = system: sedge, umbrella (small-flower umbrella sedge, Cyperus difformis); test: as above; settings: 250 g ai/ha, Flood, applied to paddy water, evaluated after 13 days
Method in brief: as §2

[27] = system: rice (Oryza sativa); test: as above; settings: 250 g ai/ha, Flood, applied to paddy water, evaluated after 13 days
Method in brief: as §2

[28] = 62 g ai/ha, postemergence, 10 days, 0 = no effect, 100 = complete control
[29] = Postemergence, 16 g ai/ha, greenhouse 10 days, 0 no effect, 100 complete control
[30] = 62 g ai/ha, 0 = no effect, 100 = complete control

Compound: COC(=O)C1C=CC(NC(=O)C2(C(F)(F)F)CN(c3cc(F)c(F)c(F)c3)C(=O)O2)C1 (mixture of isomers) [Compound 162]
- Kochia plant response rating (0-100) [1, 28]: 70
- Kochia plant response rating (0 to 100 scale) [1, 29]: 0
- Barnyardgrass plant response rating (0-100) [2, 28]: 100
- Barnyardgrass plant response rating (0 to 100 scale) [2, 29]: 50
- Foxtail, Green plant response rating (0-100) [3, 28]: 80
- Foxtail, Green plant response rating (0 to 100 scale) [3, 29]: 30
- Oat, Wild plant response rating (0-100) [4, 28]: 90
- Oat, Wild plant response rating (0 to 100 scale) [4, 29]: 80
- Ragweed plant response rating (0-100) [5, 28]: 40
- Ragweed plant response rating (0 to 100 scale) [5, 29]: 20
- Blackgrass plant response rating (0-100) [6, 28]: 100
- Blackgrass plant response rating (0 to 100 scale) [6, 29]: 90
- Galium plant response rating (0-100) [7, 28]: 60
- Galium plant response rating (0 to 100 scale) [7, 29]: 30
- Wheat plant response rating (0-100) [8, 28]: 90
- Wheat plant response rating (0 to 100 scale) [8, 29]: 90
- Corn plant response rating (0-100) [9, 28]: 100
- Corn plant response rating (0 to 100 scale) [9, 29]: 100
- Ryegrass, Italian plant response rating (0-100) [10, 28]: 70
- Ryegrass, Italian plant response rating (0 to 100 scale) [10, 29]: 30
- Soybean plant response rating (0-100) [11, 28]: 70
- Soybean plant response rating (0 to 100 scale) [11, 29]: 60
- Pigweed, Palmer plant response rating (0-100) [12, 28]: 50
- Pigweed, Palmer plant response rating (0 to 100 scale) [12, 29]: 10
- Kochia plant response rating ([13]; 16 g ai/ha, 0 to 100 scale): 0
- Kochia plant response rating (0-100) [13, 30]: 40
- Barnyardgrass plant response rating ([14]; 16 g ai/ha, 0 to 100 scale): 0
- Barnyardgrass plant response rating (0-100) [14, 30]: 80
- Foxtail, Green plant response rating ([15]; 16 g ai/ha, 0 to 100 scale): 0
- Foxtail, Green plant response rating (0-100) [15, 30]: 30
- Oat, Wild plant response rating ([16]; 16 g ai/ha, 0 to 100 scale): 20
- Oat, Wild plant response rating (0-100) [16, 30]: 90
- Ragweed plant response rating ([17]; 16 g ai/ha, 0 to 100 scale): 0
- Ragweed plant response rating (0-100) [17, 30]: 10
- Blackgrass plant response rating ([18]; 16 g ai/ha, 0 to 100 scale): 0
- Blackgrass plant response rating (0-100) [18, 30]: 60
- Wheat plant response rating ([19]; 16 g ai/ha, 0 to 100 scale): 20
- Wheat plant response rating (0-100) [19, 30]: 90
- Corn plant response rating ([20]; 16 g ai/ha, 0 to 100 scale): 0
- Corn plant response rating (0-100) [20, 30]: 70
- Ryegrass, Italian plant response rating ([21]; 16 g ai/ha, 0 to 100 scale): 0
- Ryegrass, Italian plant response rating (0-100) [21, 30]: 80
- Soybean plant response rating ([22]; 16 g ai/ha, 0 to 100 scale): 10
- Soybean plant response rating (0-100) [22, 30]: 50
- Pigweed, Palmer plant response rating ([23]; 16 g ai/ha, 0 to 100 scale): 0
- Pigweed, Palmer plant response rating (0-100) [23, 30]: 30
- Plant response rating, Barnyardgrass (0 to 100 scale, 0 is no effect and 100 is complete control) [24]: 20
- Plant response rating, Ducksalad (0 to 100 scale, 0 is no effect and 100 is complete control) [25]: 65
- Plant response rating, Sedge, Umbrella (0 to 100 scale, 0 is no effect and 100 is complete control) [26]: 0
- Plant response rating, Rice (0 to 100 scale, 0 is no effect and 100 is complete control) [27]: 0
